From patent US4870002A, “Method of prevention of oxidative injury to cells” (priority 1985, dated 1989) come the findings set out here.

In assay [1] the test system is Con A-Lu-BSA labeled pig RBCs. Put plainly: Chemiluminescence of Con A-Lu-BSA labeled pig RBCs with exogenous hydrogen peroxide. Format: cell-based. On the procedure:
The luminol-bovine serum albumin (Lu-BSA) complex was made by mixing 2 mg luminol (5-amino-2, 3-dihydrophthalazine-1,4-dione), 0.2 ml of 2 mg BSA/ml PBS (pH 6.9), and 1.6 ml of PBS, pH 6.9. The preparation was then passed through a 0.22 μm nitrocellulose filter to remove insoluble luminol. Next, 0.2 ml of 2 mg Con A/ml of PBS, pH 6.9, was added to the filtrate. After gentle mixing, 10 μl of 25% glutaraldehyde were added. The solution was incubated in the refrigerator for 1 hour. To stop the conjugation, 100 mg of glycine was added to the solution. The solution was then pressed through a 48 ml column of dextran gel filtration beads equilibrated with PBS, pH 6.9. The gel exclusion size was greater than 5000 for globular molecules. The fractions were collected and tested for luminescent labeling activity.
One ml of supernatant of each 10 ml aliquot of 1:20 diluted RBCs was replaced with 1 ml of Con A-Lu-BSA solution as previously described. The preparation was incubated for 15 min. at 37° C. in a water-jacketedcell culture incubator. The cells were then pelleted in a clinical centrifuge, resuspended in PBS, and washed in the same manner two additional times. The washed cells were maintained at 4° C. until used the same day of preparation.
Following exposure to chemical or physical stressors, 100 μl of the RBC suspension was added to 500 μl of PBS, pH 7.4, containing 0.3% hydrogen peroxide, in a scintillation vial. To activate the sample, 100 μl of 0.1N NaOH were added to the vial in place in an ATP photometer (Integrating ATP Photometer Model 3000, Science Applications, San Diego, California 92121) The photometer was set to a dark count of 1 count/30 second at a sensitivity of 600 at room temperature (approximately 23° C.). All counts followed a 5 second delay period to allow for stabilization of the photomultiplier. The counts are reported as counts/30 sec.
All essays were run at room temperature. The post-collection age of those cells was 11-18 days and the cells were used the day of labeling. […] Pyruvate (1.43 mM), an autoxidizable substrate, doubled the CL of labeled cells.

In the next assay the test system is pig RBCs. The assay is described as follows: Thermal fragility / hemolysis of RBCs (410 nm absorbance of supernatant). Type of assay: cell-based. The note with it: 340 μM; for effect on thermal hemolysis, in words: 48° C. for 30 min. On the procedure:
Blood was collected from Landrace-Duroc swine from a closed herd. Pigs from this herd had previously expressed episodes of porcine stress syndrome (malignant hyperthermia) following halothane anesthesia. The blood was collected into acidic citrated dextrose solution in standard blood bags. The blood was diluted 1:10 in phosphate (0.1M) buffered saline (PBS), pH 7.4, in 10 ml aliquots, centrifuged in a clinical centrifuge, and the erythrocytes were resuspended in fresh PBS. The cells were stored at 4° C. until used in the various assays. The post-collection chronological age of the RBCs used for a particular assay is noted in the results for each assay. The cells were counted in an automated cell counter (Coulter ZBI, Coulter Electronics, Inc., Hialeah, Fla. 33010).
Red blood cells were heated in 1 or 1.5 ml aliquots of PBS pH 7.4 with or without additional reagents in cellulose nitrate or polypropylene centrifuge tubes. Two concentrations of cells were used as indicated in the results. Heating was accomplished by three methods: microwave radiation, hot air, or water bath heating. The microwave device was a circularly polarized waveguide powered by a 1-kw S-band (microwave) amplifier (Model 10704,MCL, Inc., La Grange, Ill.). The heating of the sample at a specific absorption rate (SAR) of 91±4 W/kg (continuous wave (CW), 2450MHz) was offset by an air-cooling system that maintained a constant temperature. This system has been previously described in greater detail in Kiel, J. L. and D. N. Erwin, "Microwave and thermal interactions with oxidative hemolysis", 16 Physiol. Chem. Phys. Med. NMR, 317-323 (1984), which reference is hereby incorporated in its entirety by this specific reference thereto. […] The temperature was held within ±0.2° C. by this system. In the absence of microwave radiation, the temperature was held constant by hot air alone. The microwave/hot air system was brought to 37° C. for 15 min. prior to raising the temperature to 43° C. by microwaves or hot hot air. The water bath heating held the temperature within ±0.5° C. Heating times were 10, 15, or 30 min. The temperatures examined were 37°, 43°, 45°, or 48°.
Hemoglobin released into the supernatants of the heated cells were determined by the method described in the above-incorporated reference of Kiel and Erwin (1984). In brief, the supernatants were collected following centrifugation in a clinical centrifuge, diluted 1:2 in PBS, pH 7.4, and the optical absorbances at 410 nm were determined in a dual beam spectrophotometer. Pyruvate, lactate, inosine, hydrogen peroxide, mimosine, and/or 3-amino-L-tyrosine were added to the samples as indicated in Tables 1-3 and 9-12. All reagents were diluted in PBS and the final volumes of the samples were constant.

The subject of the next assay is peroxidase. Put plainly: 3-aminotyrosine oxidation by peroxidase. Format: biochemical.

Turning to `NC(Cn1ccc(=O)c(O)c1)C(=O)O` [L--mimosine, L-mimosine], in assay [1] (630 μM), the “CL (30 sec)” value was 8,555 ± 1,044 counts/30 sec and the “level of CL below natural RBC CL” value is listed as 36%. Besides, in assay [1] (5 mM, 30 min at room temperature), the “effect of prewashing labeled cells on CL, in words” value is on record as “no significant effect”. Moreover, the activity at 630 µM in assay [1] (Sus scrofa, Erythrocyte, 630 μM, read-out: Percent control) was 28%. Besides, in assay [1] (Sus scrofa, Erythrocyte, pretreatment 5 mM, 30 min, washed before activation, read-out: Percent control), the activity at 5000 µM worked out at 94%. Also, the inhibition at 630 µM in assay [1] (Sus scrofa, 630 μM, read-out: inhibition of CL) came out at 72%. In addition, the “CL (30 sec)” value in assay [1] (pretreatment 5 mM, 30 min, washed before activation) is on record as 28,517 ± 2,591 counts/30 sec. Moreover, in the assay with pig RBCs (48° C. 30 min), the “Percent difference from controls (corrected), 4° C.” value was 95.1% and the “Percent difference from controls (corrected), 48° C.” value came to 21.5%. In addition, the “410 nm absorbance, Actual” value in the assay with pig RBCs (48° C. 30 min, RBCs 20 days post collection, 1.4×10^9 per ml) is 0.965 ± 0.026. Besides, the “410 nm absorbance, Corrected” value in the assay on pig RBCs (48° C. 30 min, corrected for RBC dilution) was determined as 0.724. Moreover, the “effect on thermal hemolysis, in words” value in the assay on pig RBCs (listed as Mimosine) was “had no effect”. Besides, the “effect on thermal hemolysis, in words” value with pig RBCs (listed as mimosine) is given as “failed to protect”. For the same compound, in the assay on peroxidase, the “mode of inhibition, in words” value is “uncompetitive inhibitor”.

A word on the inhibition: it is the share of the control response that was lost under treatment.
